Laboratory results: patent US20250049810A1, “METHODS OF TREATING A RAS PROTEIN-RELATED DISEASE OR DISORDER” (Revolution Medicines, Inc., priority 2023, published 2025)
Read-outs that look alike come from different tables or passages of the source.

Assays:
[1] = system: xenograft models of human KRAS^G12C cancers; assay: Xenograft / preclinical models of KRAS G12C cancers; format: in vivo
[2] = system: human cancer cell lines harboring the KRAS^G12C mutation; assay: Growth suppression and apoptosis in KRAS G12C cancer cell lines; format: cell-based; settings: multiple human cancer cell lines harboring KRAS^G12C
[3] = Phase 1/1b study: safety, treatment-related adverse events; format: in vivo, human
Description: (§1) This Example describes the study design of a Phase 1/1b study of Compound A in patients with advanced KRAS^G12C solid tumors with the first patient dosed in September 2022. There are two components in this study: Part 1—Dose Escalation and Part 2—Dose Expansion (FIG. 1). In Part 1—Dose Escalation, an assessment of safety and tolerability are conducted, and the candidate recommended Phase 2 dose and schedule (RP2DS) are determined for further testing in the Dose Expansion Part. Part 2 of the study evaluates the safety and antitumor effects of the candidate RP2DS in KRAS^G12C-mutant solid tumors.
Safety assessments and procedures were performed. Real-time safety monitoring is performed to ensure that the protocol-specified dose modification guidelines are followed. In addition, C1 safety and available PK and pharmacodynamic data reviewed and evaluated at each Compound A dose level/schedule to determine whether enrollment into the next higher dose-level cohort could proceed. A modified schedule evaluated in which Compound A may be administered more or less frequently than once daily (QD). The totality of the data from dose escalation cohorts is reviewed and one or more candidate RP2DS for expansion in Part 2 can be recommended.
(§2) Patients with previously treated, advanced […] solid tumors received escalating doses of Compound A. Doses included 50 mg, 100 mg, and 200 mg once daily (QD) and 100 mg, 200 mg, 300 mg, and 400 mg twice daily (BID). Each cycle had 21 days, with efficacy assessed every 6 weeks. Additional patients were enrolled to backfill cohorts at dose levels that cleared dose-limiting toxicity evaluation to further characterize PK, safety, and anti-tumor activity of Compound A as described in Example 1.

[4] = Phase 1/1b study: Compound A pharmacokinetics in patients; format: in vivo, human; settings: for Tmax / half-life: human, oral, plasma; for Tmax: read-out: median Tmax
Description: as §1
Whole-blood samples were collected from all subjects to measure Compound A concentrations, circulating tumor deoxyribonucleic acid (ctDNA) and other biomarkers. Samples for pharmacodynamic assays collected in Cycle 1 and beyond. Paired pretreatment and on treatment fresh tumor samples collected from any subject if consent is obtained and at the discretion of the treating physician. Optional collection of pre-study treatment fresh biopsy should be performed prior to C1D1 dosing. An optional on-study treatment biopsy may be obtained with subject consent and at the discretion of the treating physician. The primary purpose of the optional on-study treatment biopsies is to assess pharmacodynamic markers and previously acquired pre-study treatment markers of resistance. Biopsy assessment with study intervention treatment over time may also help with better understanding of the shift in mutational profile with study treatment, as well as cellular clonality changes over time. Where tumor tissue allows, predictive biomarkers of response are explored.
Initially Compound A will be administered orally QD for a treatment cycle of 21 days. BID dosing be administered to subjects who are enrolled into Dose level 3 and higher dose levels during escalation as well. For subjects on BID dosing, the second dose of Compound A is administered approximately 10 to 12 hours after the first dose is administered.
as §2

[5] = system: KRAS^G12C NSCLC; assay: Phase 1/1b study: tumor response per RECIST 1.1 in KRAS G12C NSCLC; format: in vivo, human; settings: for patients who responded (response rate): all doses
Description: as §1
(§3) Subjects are assessed for response using Response Evaluation Criteria in Solid Tumors (version 1.1) (RECIST [v1.1]). All subjects with previous or current, known or suspected brain metastases must have a magnetic resonance imaging (MRI) of the brain (unless contraindicated) performed within 28 days prior to the first dose of Compound A (C1D1). Disease response for clinical management of subjects were assessed per RECIST (v1.1).
as §2

[6] = system: KRAS^G12C CRC; assay: Phase 1/1b study: tumor response per RECIST 1.1 in KRAS G12C CRC; format: in vivo, human
Description: as §1, §3, §2

[7] = 47 patients, all doses, as of Aug. 8, 2023
[8] = FIG. 3, CRC naive to KRAS^G12C(OFF) inhibitor, RECIST 1.1

CCn1c(-c2cccnc2[C@H](C)OC)c2c3cc(ccc31)N1CCO[C@@H](C[C@H](NC(=O)[C@H](C(C)C)N(C)C(=O)C3(F)CCN(C(=O)C#CC(C)(C)N(C)C)CC3)C(=O)N3CCC[C@H](N3)C(=O)OCC(C)(C)C2)C1 (atropisomer, axis not shown) [Compound A]
response in preclinical models compared to adagrasib ([1]; compared to the KRAS^G12C(OFF) inhibitor adagrasib): superior response rate, deeper regressions and longer duration of response | anti-tumor activity in vivo ([1]; multiple xenograft models of human KRAS^G12C cancers): dose-dependent and durable tumor regressions | effect on cancer cell lines in vitro [2]: growth suppression and apoptosis | Gr3 TRAE QTc prolongation, number of patients ([3]; 200 mg BID): 1 patients | Gr3 TRAE QTc prolongation, number of patients ([3]; 300 mg): 1 patients | Gr3 TRAE QTc prolongation, number of patients ([3]; 400 mg BID): 3 patients | TRAE QTc prolongation, patients [3, 7]: 21% | TRAE diarrhea, patients [3, 7]: 30% | TRAE fatigue, patients [3, 7]: 15% | TRAE nausea, patients [3, 7]: 34% | TRAE vomiting, patients [3, 7]: 15% | Gr3 TRAE QTc prolongation, number of patients ([3]; all doses): 5 patients | treatment-emergent AE that led to treatment discontinuation ([3]; all doses): No patients | treatment-related Gr4 or 5 AE ([3]; all doses): No patients | treatment-related ≥Gr3 hepatotoxicity ([3]; all doses): No treatment-related ≥Gr3 hepatotoxicity was observed | patients with average QTc interval >501 ms ([3]; out of the 5 patients with Gr3 QTc prolongation): one | Tmax ([4]; 13 subjects, data as of May 15, 2023): 1 h | half-life ([4]; 13 subjects, data as of May 15, 2023, read-out: terminal half-life in the plasma): < 3 h | Tmax ([4]; patients, data as of Aug. 8, 2023): 1 h | half-life ([4]; patients, data as of Aug. 8, 2023, read-out: terminal half-life (converted)): 1.8 h | exposure ([4]; patients, escalating oral doses 50 mg QD to 400 mg BID): dose-dependent exposure | AUC ([4]; range of 50-200 mg): increased in a dose-dependent manner | Cmax ([4]; range of 50-200 mg): increased in a dose-dependent manner | mean accumulation ratio (C1D15 AUC vs C1D1 AUC) ([4]; repeated daily dosing): less than 2 × | confirmed PR, number of patients ([5]; FIG. 2, NSCLC, RECIST 1.1): 5 | unconfirmed PR, number of patients ([5]; FIG. 2, NSCLC, RECIST 1.1): 3 | disease control rate ([5]; NSCLC, both sets of patients (G12C(OFF) inhibitor naive and pretreated)): 100% | patients who responded (response rate) ([5]; NSCLC, not previously treated with G12C(OFF) inhibitor, three of seven, as of Oct. 5, 2023): 43% | patients who responded (response rate) ([5]; NSCLC, previously treated with G12C(OFF) inhibitor, 5 of 10, as of Oct. 5, 2023): 50% | disease control rate ([6]; CRC, not previously treated with G12C(OFF) inhibitor): 80% | patients with partial response ([6]; CRC, not previously treated with G12C(OFF) inhibitor, 8 of 20, as of Oct. 5, 2023): 40% | confirmed PR, number of patients [6, 8]: 5 | unconfirmed PR, number of patients [6, 8]: 3
